Laboratory results taken from PMC6561935, “Hsp90 middle domain phosphorylation initiates a complex conformational program to recruit the ATPase-stimulating cochaperone Aha1” (Nature Communications, 2019).

How the values were obtained:
[1] = molecular target: T1, Hsp90 (human Hsp90α) (Homo sapiens, UniProt P07900, H210A); test: isothermal titration calorimetry; format: binding
T1 construct: gene HSP90AA1; purified full-length Hsp90α, C-terminally dimerized homodimer

[2] = molecular target: T2, Hsp90 (human Hsp90α) (Homo sapiens, UniProt P07900); test: isothermal titration calorimetry; format: binding
T2 construct: gene HSP90AA1; purified full-length Hsp90α, C-terminally dimerized homodimer

Kd [1]: 170 ± 9.8 µM | Kd [2]: 220 ± 37 µM
Compound: Nc1ncnc2c1ncn2[C@@H]1O[C@H](COP(=O)(O)OP(=O)(O)NP(=O)(O)O)[C@@H](O)[C@H]1O [AMPPNP]
